In patent publication US20240369511A1, “INTEGRATED ELECTROCHEMICAL APTASENSORS FOR MEASURING CELL DEATH AND CYTOKINE ACTIVITY FROM INTACT TISSUE SAMPLES” (University of Washington, priority 2023, published 2024):
Several values for one entry are separate records, joined by “and”; a condition that tells them apart may be missing. Identical values can stand only once.

Key:
[1] = tested on: U87 glioma xenograft cuboids; assay: Terminal SYTOX green dead stain fluorescence of cuboids; assay type: cell-based; conditions: 48 hrs
[2] = tested on: U87 glioma xenograft cuboids; assay: On-device aptasensor monitoring of CytC secretion from drug-treated cuboids; assay type: cell-based; conditions: for CytC level vs control: 12 to 48 hrs
Procedure: Ex-vivo monitoring of CytC from microdissected tumor tissues after drug treatment in culture using the aptasensor platform. The sensor platform's ability to quantify CytC secretion from cuboids was evaluated at different time points during an extended culture period (48 hrs). Cuboids from human U87 glioma cell-derived tumors grown in athymic nude mice were prepared. After overnight culture in a 96-well plate to allow recovery from tissue damage due to the cutting procedure, the cuboids were transferred onto the sensor platform for measurement. To prevent random adhesion of the cuboids to the sensor surface and improve the precise localization of CytC secretion detection, the cuboids were encapsulated in a hydrogel. They were mixed with hydrogel before transferring onto the sensors and immobilizing them to a restricted area just above the working electrode (FIGS. 5A-5B). […] Encapsulation of cells in hydrogels in close proximity to the WE also generates a more localized and distinguishable electrochemical response. Hydrogels can be used as a protective layer to ensure the long-term stability of aptasensors. A polysaccharide hydrogel (Cellink, Bioink, Boston, USA) that contains nanofibrillar cellulose and sodium alginate was used. […] It was also observed that the performance of the sensors remained unhindered regardless of the hydrogel concentration, apart from an extension of the reaction time to approximately 30 min. […] Next, the sensor platform's ability to measure CytC secretion from cuboids in response to exposure to cytotoxic drugs was evaluated. Initially, the baseline signal was measured with the encapsulated cuboids on the WE before exposing U87 cuboids to different concentrations of cisplatin (a cytotoxic chemotherapy drug, FIG. 5C), sepantronium bromide, (YM-155, a survivin inhibitor and potential anti-cancer drug, FIG. 5D), and mocetinostat (MOC, a histone deacetylases inhibitor cancer drug, FIG. 5E) for 48 hrs. […] These observations were consistent with fluorescence-based findings and agreed with the sensor-based responses. […]

CytC [3] = target: T1, CytC (Homo sapiens, UniProt P99999); assay: Binding kinetics of the CytC aptasensor (temporal response, flow injection analysis)
T1 construct: purchased RayBiotech Life, Inc (GA, USA)
T1 sequence (P99999 whole entry): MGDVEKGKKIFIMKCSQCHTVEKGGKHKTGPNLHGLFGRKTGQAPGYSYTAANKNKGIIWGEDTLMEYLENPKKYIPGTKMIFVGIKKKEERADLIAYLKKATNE
Text: Binding kinetics of the CytC aptasensor. The binding kinetics of aptamer-protein complexes were further evaluated. […] Next, the monomolecular dissociation rate constant (koff) was computed. The aptasensor platform was adapted for flow injection analysis under constant flow. The sensor platform was modified to incorporate an inlet and outlet loop injection system. With this setup, the different phases of aptamer-target interaction were able to be measured, including association, dissociation, and equilibrium. […] Initially, the aptamer remained unbound in the absence of the target, producing baseline levels of current. The introduction of the target initiated the association phase, which led to the occupation of aptamer binding sites. This phase continued until a steady-state or equilibrium point was attained. Subsequently, the semi-automated target removal initiated the dissociation phase of the aptamer-target complex. The continuous flow of the medium enabled the aptasensor to recover eventually, gradually returning to the baseline levels within approximately 12 hrs.
Modify sensor platform to become injection analysis platform for characterization of binding kinetics. The existing platform was modified by introducing an additional PMMA layer to establish channels and the well layer altered to create a sealed chamber for flow injection. The PMMA layer (0.3 mm thick) was lined with 3M300LSE adhesive before being precisely cut using a CO2 laser. The culture medium was injected through tubing (Tygona, Cole-Parmer, IL, USA) connected to the injector loop at a 2.5 mL/min flow rate using a Fusion 200 syringe pump (Chemyx, Inc, TX, USA). Following a 5-minute equilibration period during which the sensors were exposed to continuous medium flow, CytC was introduced into the flow as the target compound.

CytC [4] = target: T1, CytC; assay: Selectivity of the CytC aptasensor against interferents and drugs; assay type: binding
Procedure: Selectivity of the CytC aptasensor. Selectivity is a factor for the practical application of these sensors in tumor-on-a-chip models for drug screening. To assess the selectivity of the sensors, experiments were conducted in which the sensor's responses to CytC (100 ng/mL) vs. responses in the presence of other potentially interfering molecules (also at 100 ng/mL) were measured. Measurements were performed in a growth medium at 50 Hz.
Ex-vivo monitoring of CytC from microdissected tumor tissues after drug treatment in culture using the aptasensor platform. The sensor platform's ability to quantify CytC secretion from cuboids was evaluated at different time points during an extended culture period (48 hrs). Cuboids from human U87 glioma cell-derived tumors grown in athymic nude mice were prepared. […] Next, the sensor platform's ability to measure CytC secretion from cuboids in response to exposure to cytotoxic drugs was evaluated. Initially, the baseline signal was measured with the encapsulated cuboids on the WE before exposing U87 cuboids to different concentrations of cisplatin (a cytotoxic chemotherapy drug, FIG. 5C), sepantronium bromide, (YM-155, a survivin inhibitor and potential anti-cancer drug, FIG. 5D), and mocetinostat (MOC, a histone deacetylases inhibitor cancer drug, FIG. 5E) for 48 hrs. […]

CytC [5] = target: T1, CytC; assay: CytC aptasensor calibration curve by square wave voltammetry; assay type: binding
Text: (§1) Characterization of the electrochemical aptamer-based sensor. An electrochemical sensor with a modified aptamer that recognizes CytC was developed, enabling real-time monitoring of CytC increases in the supernatant due to cell death in cuboids during drug screening. The aptamer sequences were modified with a redox-active molecule, methylene blue (MB), at the distal end of the aptamer. As shown at FIG. 2A, the binding of the CytC target induces a rapid and reversible conformational change in the aptamer, increasing the electron transfer (eT) rate between the MB reporter and the WE surface. This change in eT results in a measurable variation in redox current, easily detectable using square wave voltammetry (SWV). Changes in peak current height were monitored, which correlates with the proximity of the MB redox tag to the electrode. The performance of the aptasensors in response to varying concentrations of CytC (ranging from 1 to 30,000 ng/mL) is presented at FIG. 2B. At a recording frequency of 50 Hz, the peak current height of the sensors decreases as the CytC concentration increases.
Electrochemical signal measurement. All the electrochemical measurements were performed using a Digi-Ivy potentiostat (DY-2219, Digi-Ivy, Austin, TX, USA). For the SWV measurements, the sensors were integrated from 0.0 to −0.5 V (versus Ag/AgCl) with 40-mV amplitude and a voltage increment of 1 mV suitable frequency setting (ranging from 10 Hz to 1,000 Hz). A conventional three-electrode cell was used in electrodeposition, Ag/AgCl with 3M KCl as reference electrode, and platinum wire (0.05 mm diameter, Alfa Aesar, MA, USA) as counter electrode.
Quantitative analysis and characterization of the Cyt C aptamer sensor. The CytC sensors were characterized in cultured medium DMEM-F12-10% FBS with spiked human CytC recombinant (reconstituted in PBS). The SWV measurement for aptasensors was scanned from −0.5 V to 0 V with 40-mV amplitude and a step potential of 1 mV. The frequency is 50 Hz and 1,000 Hz.

Cytochrome c (CytC) = Cytochrome c (CytC) (Homo sapiens, UniProt P99999 P99999:2-105); assay: apparent KD, electrochemical aptamer sensor on Au, square wave voltammetry 50 Hz, Langmuir-Hill fit; text also prints 515±130 μM (6.19 ng/mL corresponds to abou); conditions: tags: RayBiotech Life recombinant human cytochrome c; label: 3' methylene blue
Chain of Cytochrome c (CytC) (P99999 2-105, one chain of several): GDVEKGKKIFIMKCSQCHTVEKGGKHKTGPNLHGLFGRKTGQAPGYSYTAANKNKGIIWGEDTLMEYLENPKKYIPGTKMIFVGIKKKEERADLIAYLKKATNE
Text: as §1

Molecule: N.N.[Cl][Pt][Cl] [cisplatin]
- SG dead stain fluorescence vs control ([1]; 30 μM cisplatin): higher SG dead stain fluorescence
- SG dead stain fluorescence vs control ([1]; 100 μM cisplatin): higher SG dead stain fluorescence
- CytC level vs control ([2]; 30 μM cisplatin): higher CytC level compared to the control
- CytC level vs control ([2]; 100 μM cisplatin): highest levels of CytC

Molecule: 5′-/ThioMC6-D/CC GTGTCTGGGGCCGACCGGCGCATTGGGTACGTTGTTGC/AmMO/-3′ (DNA CCGTGTCTGGGGCCGACCGGCGCATTGGGTACGTTGTTGC; chemistry not fully specified) [CytC aptasensor, DNA aptamer recognizing cytochrome C, modified with methylene blue redox reporter, immobilized on gold working electrode]
- time to return to baseline (dissociation) (CytC [3]): 12 h
- response time to target (CytC [3]; after addition of 1,000 ng/ml CytC, SWV 50 Hz): ≤ 100 s
- time to return to baseline levels (dissociation) (CytC [3]; continuous flow of medium after target removal): approximately 12 hrs
- signal gain for CytC vs interfering molecules (CytC [4]; CytC 100 ng/mL vs FGF, EGF, IL-2, BSA at 100 ng/mL, growth medium, 50 Hz): higher signal gain
- signal gain for CytC vs drugs used for treatment (CytC [4]; CytC 100 and 2000 ng/mL vs DMSO, MOC, FOLFOX, Cisplatin, Staurosporine, YM-155, culture medium, 50 Hz, 1,000 Hz, KDM): higher signal gain
- detectable relevant concentrations (CytC [5]; 50 Hz): up to 3.32 μM
- dynamic range (CytC [5]; 50 Hz): up to 39,580 ng/mL
- apparent dissociation constant, KD (CytC [5]; calibration curve at 50 Hz, nonlinear regression fit to Langmuir-Hill isotherm): 6.19 ± 1.57 ng/mL and ~6 ng/mL

Molecule: Nc1ccccc1NC(=O)c1ccc(CNc2nccc(-c3cccnc3)n2)cc1 [MOC, mocetinostat]
- SG dead stain fluorescence vs DMSO control ([1]; 10 μM MOC): slightly elevated SG dead stain fluorescence
- CytC production rate vs DMSO control ([2]; 10 μM MOC, 48 hrs, not statistically significant): higher average CytC production rate than the DMSO control

B1: CytC aptamer (SEQ ID NO:1) (ssDNA)
DNA: CCGTGTCTGGGGCCGACCGGCGCATTGGGTACGTTGTTGC
modifications: 5' ThioMC6-D (disulfide C6 thiol, attached to gold electrode); 3' amino modifier conjugated to methylene blue
- binding result (Cytochrome c (CytC)): binds
